Assay results from US20050101593A1, “Phosphoric acid salt of an integrin receptor antagonist” (priority 2000, published 2005).
Structures can show the parent of a compound that is named as a salt.

Assays:
[1] = solubility in water and buffered solutions; format: physicochemical; settings: water and buffered solutions between pH 2 and 8
[2] = chemical stability to heat and light; format: physicochemical; settings: compared with the amorphous parent zwitterionic compound of formula (IV)
From the text: (§1) The enhanced stability and non-hygroscopic nature of the crystalline salt constitute advantageous properties in the preparation of solid pharmaceutical dosage forms containing the pharmacologically active ingredient.

hygroscopicity = format: physicochemical; settings: compared with the amorphous zwitterion of formula (IV)
From the text: as §1

SMILES: COc1ncc(C(CC(=O)O)CC(=O)CCCCc2ccc3c(n2)NCCCC3)cn1.O=P(O)(O)O (single isomer, unassigned) [1-17a, 3(S or R)-(2-Methoxy-pyrimidin-5-yl)-5-oxo-9-(6,7,8,9-tetrahydro-5H-pyrido[2,3-b]azepin-2-yl)-nonanoic Acid Phosphoric Acid Salt]
- melting point: 127 °C

SMILES: COc1ncc(C(CC(=O)O)CC(=O)CCCCc2ccc3c(n2)NCCCC3)cn1 (stereo not shown) [salt of formula I, phosphoric acid salt of 3-(2-methoxy-pyrimidin-5-yl)-5-oxo-9-(6,7,8,9-tetrahydro-5H-pyrido[2,3-b]azepin-2-yl)-nonanoic acid]
- solubility [1]: > 12 mg/mL
- chemical stability to heat and light [2]: greater chemical stability to heat and light
- hygroscopicity (hygroscopicity): significantly less hygroscopic
